# According to patent publication US10407467B2, “Polymyxin derivatives and their use in combination therapy together with different antibiotics” (priority 2013, dated 2019):
# Where a name gives a salt, the structure may show the parent alone. Read-outs that look alike come from different tables or passages of the source.
# Experiments:
# Escherichia coli [1] = test: MIC, compound in combination with a second agent (broth microdilution); assay type: cell-based; settings: 1:1 (wt:wt) combination with Rifampicin, MIC = total drug concentration
# Method in brief: (§1)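 Broth microdilution with inoculum from 18-24 h Mueller-Hinton agar colonies adjusted to 0.5 McFarland, up to four strains per species. Compound combined 1:1 w/w with second agent (e.g. rifampicin), mass as salt form; MIC is total drug concentration. Duplicates, lower value reported if within 2-fold; modal value for repeat tests.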
# Pseudomonas aeruginosa [2] = test: as above; assay type: cell-based; settings: 1:1 (wt:wt) combination with Rifampicin, MIC = total drug concentration
# Method in brief: as §1
# Klebsiella pneumoniae [3] = test: as above; assay type: cell-based; settings: 1:1 (wt:wt) combination with Rifampicin; MIC = total drug concentration; strain CCUG-59348
# Method in brief: as §1
# Acinetobacter baumannii [4] = test: as above; assay type: cell-based; settings: 1:1 (wt:wt) combination with Rifampicin, MIC = total drug concentration
# Method in brief: as §1
# Escherichia coli [5] = test: MIC, sole activity (no second agent); assay type: cell-based
# Method in brief: (§2)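 Compound tested without a second agent in cation-adjusted MHB, up to four strains per species, inoculum at 0.5 McFarland from colonies grown 18-24 h on Mueller-Hinton agar. Run in duplicate, invalid beyond 2-fold disagreement, lower duplicate or modal repeat value given, expressed relative to Polymyxin B.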
# Pseudomonas aeruginosa [6] = test: MIC, sole activity (no second agent); assay type: cell-based
# Method in brief: as §2
# Klebsiella pneumoniae [7] = test: MIC, sole activity (no second agent); assay type: cell-based
# Method in brief: as §2
# Acinetobacter baumannii [8] = test: MIC, sole activity (no second agent); assay type: cell-based
# Method in brief: as §2
# P. aeruginosa ATCC 27853 = settings: ATCC 27853, in vivo, iv, 9 h
# HK-2 cell line = test: In vitro renal cell toxicity assay (resazurin reduction); assay type: cell-based, human
# [9] = Table 6A, no second agent, different supplier of Cation-adjusted MHB
smiles,measurement,setting,value
"CC(C)C[C@@H]1NC(=O)[C@@H](Cc2ccccc2)NC(=O)[C@H](CCN)NC(=O)[C@@H](NC(=O)[C@H](CCN)NC(=O)[C@@H](NC(=O)[C@H](CCN)NC(=O)CC(N)C2CCCCC2)C(C)O)CCNC(=O)[C@H](C(C)O)NC(=O)[C@H](CCN)NC(=O)[C@H](CCN)NC1=O (mixture of isomers) [Example 39, 3-(RS)-(3-Amino-3-cyclohexyl)propanoyl polymyxin B decapeptide, trifluoroacetate salt]",MIC E. coli ATCC25922,Escherichia coli [1]; strain ATCC25922,≤0.06 micrograms/mL
same,MIC E. coli NCTC9001,Escherichia coli [1]; strain NCTC9001,0.125 micrograms/mL
same,MIC P. aeruginosa ATCC 27853,Pseudomonas aeruginosa [2]; strain ATCC 27853,0.125 micrograms/mL
same,MIC P. aeruginosa ATCC CRM-9027,Pseudomonas aeruginosa [2]; strain ATCC CRM-9027,0.25 micrograms/mL
same,MIC P. aeruginosa ATCC-47,Pseudomonas aeruginosa [2]; strain ATCC-47,0.125 micrograms/mL
same,MIC P. aeruginosa CCUG 59626,Pseudomonas aeruginosa [2]; strain CCUG 59626,0.125 micrograms/mL
same,MIC K. pneumoniae CCUG-59348,Klebsiella pneumoniae [3],1 micrograms/mL
same,MIC A. baumannii ATCC BAA-747,Acinetobacter baumannii [4]; strain ATCC BAA-747,0.125 micrograms/mL
same,MIC A. baumannii CCUG57249,Acinetobacter baumannii [4]; strain CCUG57249,≤0.06 micrograms/mL
same,MIC A. baumannii NCTC 13423,Acinetobacter baumannii [4]; strain NCTC 13423,≤0.06 micrograms/mL
same,MIC A. baumannii NCTC 13424,Acinetobacter baumannii [4]; strain NCTC 13424,0.125 micrograms/mL
same,MIC E. coli ATCC25922,Escherichia coli [5]; [9],2 micrograms/mL
same,MIC E. coli NCTC 13441,Escherichia coli [5]; [9],2 micrograms/mL
same,MIC E. coli ATCC25922,"Escherichia coli [5]; in the absence of Rifampicin, strain ATCC25922",2 micrograms/mL
same,MIC E. coli NCTC9001,"Escherichia coli [5]; in the absence of Rifampicin, strain NCTC9001",4 micrograms/mL
same,MIC P. aeruginosa ATCC 27853,Pseudomonas aeruginosa [6]; [9],0.25 micrograms/mL
same,MIC P. aeruginosa CCUG 59347,Pseudomonas aeruginosa [6]; [9],0.5 micrograms/mL
same,MIC P. aeruginosa ATCC 27853,"Pseudomonas aeruginosa [6]; in the absence of Rifampicin, strain ATCC27853",0.125 micrograms/mL
same,MIC P. aeruginosa ATCC-47,"Pseudomonas aeruginosa [6]; in the absence of Rifampicin, strain ATCC-47",1 micrograms/mL
same,MIC P. aeruginosa ATCCCRM-9027,"Pseudomonas aeruginosa [6]; in the absence of Rifampicin, strain ATCCCRM-9027",0.125 micrograms/mL
same,MIC P. aeruginosa CCUG 59626,"Pseudomonas aeruginosa [6]; in the absence of Rifampicin, strain CCUG 59626",≤0.06 micrograms/mL
same,MIC K. pneumoniae ATCC 4352,Klebsiella pneumoniae [7]; [9],1 micrograms/mL
same,MIC K. pneumoniae ATCC BAA-2146,Klebsiella pneumoniae [7]; [9],2 micrograms/mL
same,MIC K. pneumoniae ATCC 4352,"Klebsiella pneumoniae [7]; in the absence of Rifampicin, strain ATCC 4352",1 micrograms/mL
same,MIC K. pneumoniae ATCC-BAA2146,"Klebsiella pneumoniae [7]; in the absence of Rifampicin, strain ATCC-BAA2146",32 micrograms/mL
same,MIC K. pneumoniae CCUG-59348,"Klebsiella pneumoniae [7]; in the absence of Rifampicin, strain CCUG-59348",>32 micrograms/mL
same,MIC A. baumannii ATCC BAA-747,Acinetobacter baumannii [8]; [9],1 micrograms/mL
same,MIC A. baumannii NCTC 13424,Acinetobacter baumannii [8]; [9],2 micrograms/mL
same,MIC A. baumannii ATCC13424,"Acinetobacter baumannii [8]; in the absence of Rifampicin, strain ATCC13424",0.125 micrograms/mL
same,MIC A. baumannii ATCCBAA-747,"Acinetobacter baumannii [8]; in the absence of Rifampicin, strain ATCCBAA-747",1 micrograms/mL
same,MIC A. baumannii CCUG57249,"Acinetobacter baumannii [8]; in the absence of Rifampicin, strain CCUG 57249",1 micrograms/mL
same,MIC A. baumannii NCTC 13423,"Acinetobacter baumannii [8]; in the absence of Rifampicin, strain NCTC13423",0.25 micrograms/mL
same,Log reduction from vehicle (CFU/g),P. aeruginosa ATCC 27853; 2 mg/kg,2.56 log CFU/g
same,Log reduction from vehicle (CFU/g),P. aeruginosa ATCC 27853; 4 mg/kg,3.88 log CFU/g
same,HK-2 IC50 rel to PMB,HK-2 cell line,1.5-2
